Assay results reported in patent US20080031982A1 (Metaproteomics, LLC, priority 2006, published 2008).

Legend:
Experiment in all cases: KinaseProfiler Assay
[1] = target: CDK5/p25 (Homo sapiens, UniProt Q00535)
[2] = target: T1, CHK1 (Homo sapiens, UniProt O14757)
T1 sequence (O14757 1-476): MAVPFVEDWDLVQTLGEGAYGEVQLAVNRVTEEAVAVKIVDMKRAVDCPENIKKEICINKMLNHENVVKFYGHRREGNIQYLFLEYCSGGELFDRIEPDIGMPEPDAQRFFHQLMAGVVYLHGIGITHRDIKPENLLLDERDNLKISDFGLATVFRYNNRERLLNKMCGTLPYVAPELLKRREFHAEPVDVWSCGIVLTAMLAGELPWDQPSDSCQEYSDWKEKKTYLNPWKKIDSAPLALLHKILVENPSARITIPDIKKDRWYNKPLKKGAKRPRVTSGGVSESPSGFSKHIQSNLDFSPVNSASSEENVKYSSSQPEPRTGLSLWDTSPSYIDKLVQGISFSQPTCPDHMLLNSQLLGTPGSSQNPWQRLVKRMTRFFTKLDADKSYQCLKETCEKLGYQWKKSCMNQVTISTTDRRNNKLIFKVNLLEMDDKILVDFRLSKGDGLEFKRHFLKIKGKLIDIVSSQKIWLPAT

[3] = target: ErbB4 (Homo sapiens, UniProt Q15303)
Chain of ErbB4 (Q15303 26-1308): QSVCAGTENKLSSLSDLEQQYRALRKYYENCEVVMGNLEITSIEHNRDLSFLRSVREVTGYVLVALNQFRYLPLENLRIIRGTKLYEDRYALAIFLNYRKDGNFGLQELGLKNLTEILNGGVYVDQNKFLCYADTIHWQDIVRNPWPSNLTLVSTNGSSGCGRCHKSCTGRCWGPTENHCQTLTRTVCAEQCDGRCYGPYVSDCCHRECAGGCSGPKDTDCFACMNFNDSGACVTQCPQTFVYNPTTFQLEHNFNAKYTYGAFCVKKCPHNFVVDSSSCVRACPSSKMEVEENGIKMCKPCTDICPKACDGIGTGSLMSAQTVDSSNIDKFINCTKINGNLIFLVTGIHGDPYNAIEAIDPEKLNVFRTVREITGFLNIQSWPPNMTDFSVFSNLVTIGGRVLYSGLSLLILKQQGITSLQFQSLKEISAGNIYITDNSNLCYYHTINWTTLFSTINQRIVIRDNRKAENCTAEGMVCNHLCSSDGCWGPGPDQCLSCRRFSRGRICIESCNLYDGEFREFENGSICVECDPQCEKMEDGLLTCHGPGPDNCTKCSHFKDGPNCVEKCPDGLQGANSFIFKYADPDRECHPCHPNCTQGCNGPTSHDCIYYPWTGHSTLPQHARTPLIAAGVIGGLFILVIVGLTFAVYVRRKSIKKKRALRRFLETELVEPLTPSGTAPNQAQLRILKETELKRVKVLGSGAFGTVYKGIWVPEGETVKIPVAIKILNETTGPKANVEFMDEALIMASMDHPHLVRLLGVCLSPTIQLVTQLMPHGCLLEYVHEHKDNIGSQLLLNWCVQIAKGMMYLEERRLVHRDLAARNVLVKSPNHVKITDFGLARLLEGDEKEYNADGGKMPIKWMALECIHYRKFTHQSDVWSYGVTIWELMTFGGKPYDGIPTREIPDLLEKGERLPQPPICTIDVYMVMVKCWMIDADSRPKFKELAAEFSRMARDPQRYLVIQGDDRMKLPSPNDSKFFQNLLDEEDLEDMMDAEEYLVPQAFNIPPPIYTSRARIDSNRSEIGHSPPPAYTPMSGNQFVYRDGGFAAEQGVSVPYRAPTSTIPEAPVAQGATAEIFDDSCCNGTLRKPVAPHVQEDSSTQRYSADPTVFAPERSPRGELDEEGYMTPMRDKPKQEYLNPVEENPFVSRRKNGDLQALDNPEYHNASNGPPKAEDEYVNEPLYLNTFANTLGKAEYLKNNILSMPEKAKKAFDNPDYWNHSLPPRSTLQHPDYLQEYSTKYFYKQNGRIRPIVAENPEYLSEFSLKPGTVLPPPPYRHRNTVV

[4] = target: HIPK2 (Homo sapiens, UniProt Q9H2X6)
Chain of HIPK2 (Q9H2X6 whole entry): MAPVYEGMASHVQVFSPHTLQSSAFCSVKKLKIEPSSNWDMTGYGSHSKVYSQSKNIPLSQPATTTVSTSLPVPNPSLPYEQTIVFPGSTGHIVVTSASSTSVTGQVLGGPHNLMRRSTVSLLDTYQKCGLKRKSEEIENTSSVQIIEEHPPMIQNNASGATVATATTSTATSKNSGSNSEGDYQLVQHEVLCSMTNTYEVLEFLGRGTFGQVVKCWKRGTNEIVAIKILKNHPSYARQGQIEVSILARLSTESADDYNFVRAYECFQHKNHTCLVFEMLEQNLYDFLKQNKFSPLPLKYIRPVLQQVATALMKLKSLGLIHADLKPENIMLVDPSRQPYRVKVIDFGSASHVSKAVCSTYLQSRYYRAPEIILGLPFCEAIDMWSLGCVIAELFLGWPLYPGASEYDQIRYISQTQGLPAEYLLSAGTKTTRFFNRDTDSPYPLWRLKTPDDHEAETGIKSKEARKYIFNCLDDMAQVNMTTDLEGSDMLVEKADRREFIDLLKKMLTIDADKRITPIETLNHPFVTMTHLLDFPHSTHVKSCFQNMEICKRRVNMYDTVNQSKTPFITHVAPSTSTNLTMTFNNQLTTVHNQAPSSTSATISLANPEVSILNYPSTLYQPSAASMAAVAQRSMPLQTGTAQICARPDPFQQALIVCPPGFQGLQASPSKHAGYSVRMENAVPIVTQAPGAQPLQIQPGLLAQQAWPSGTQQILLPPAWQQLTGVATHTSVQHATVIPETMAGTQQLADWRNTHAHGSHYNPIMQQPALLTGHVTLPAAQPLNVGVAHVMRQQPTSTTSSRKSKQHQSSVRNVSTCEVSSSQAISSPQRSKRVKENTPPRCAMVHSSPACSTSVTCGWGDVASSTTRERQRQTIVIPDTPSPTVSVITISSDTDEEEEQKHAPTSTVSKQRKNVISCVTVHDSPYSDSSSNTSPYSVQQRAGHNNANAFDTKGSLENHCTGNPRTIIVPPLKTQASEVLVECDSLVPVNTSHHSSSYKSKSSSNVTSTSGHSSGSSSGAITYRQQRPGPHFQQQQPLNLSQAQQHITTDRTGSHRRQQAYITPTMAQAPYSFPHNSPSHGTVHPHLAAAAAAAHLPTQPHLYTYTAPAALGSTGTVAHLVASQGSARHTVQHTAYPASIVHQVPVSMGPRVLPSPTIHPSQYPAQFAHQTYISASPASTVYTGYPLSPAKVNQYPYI

[5] = target: MSSK1 (Homo sapiens, UniProt Q9UPE1)
Chain of MSSK1 (Q9UPE1 whole entry): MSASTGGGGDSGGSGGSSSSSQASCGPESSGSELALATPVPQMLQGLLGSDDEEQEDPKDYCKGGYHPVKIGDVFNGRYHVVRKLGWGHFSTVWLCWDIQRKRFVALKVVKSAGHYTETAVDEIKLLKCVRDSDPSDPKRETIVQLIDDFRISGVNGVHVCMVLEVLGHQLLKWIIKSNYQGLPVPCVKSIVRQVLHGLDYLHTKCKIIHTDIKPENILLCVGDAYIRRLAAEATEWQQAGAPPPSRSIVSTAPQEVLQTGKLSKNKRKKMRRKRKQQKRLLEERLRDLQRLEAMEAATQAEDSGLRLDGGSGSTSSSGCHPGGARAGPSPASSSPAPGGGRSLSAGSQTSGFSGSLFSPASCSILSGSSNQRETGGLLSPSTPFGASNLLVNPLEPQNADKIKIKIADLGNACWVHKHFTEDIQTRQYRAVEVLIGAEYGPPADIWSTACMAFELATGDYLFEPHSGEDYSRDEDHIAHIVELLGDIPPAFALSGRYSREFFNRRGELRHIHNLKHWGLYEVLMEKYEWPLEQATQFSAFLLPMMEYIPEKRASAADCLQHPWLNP

[6] = tested on: Rsk1
[7] = target: T2, TBK1 (Homo sapiens, UniProt Q9UHD2)
T2 sequence (Q9UHD2 1-729): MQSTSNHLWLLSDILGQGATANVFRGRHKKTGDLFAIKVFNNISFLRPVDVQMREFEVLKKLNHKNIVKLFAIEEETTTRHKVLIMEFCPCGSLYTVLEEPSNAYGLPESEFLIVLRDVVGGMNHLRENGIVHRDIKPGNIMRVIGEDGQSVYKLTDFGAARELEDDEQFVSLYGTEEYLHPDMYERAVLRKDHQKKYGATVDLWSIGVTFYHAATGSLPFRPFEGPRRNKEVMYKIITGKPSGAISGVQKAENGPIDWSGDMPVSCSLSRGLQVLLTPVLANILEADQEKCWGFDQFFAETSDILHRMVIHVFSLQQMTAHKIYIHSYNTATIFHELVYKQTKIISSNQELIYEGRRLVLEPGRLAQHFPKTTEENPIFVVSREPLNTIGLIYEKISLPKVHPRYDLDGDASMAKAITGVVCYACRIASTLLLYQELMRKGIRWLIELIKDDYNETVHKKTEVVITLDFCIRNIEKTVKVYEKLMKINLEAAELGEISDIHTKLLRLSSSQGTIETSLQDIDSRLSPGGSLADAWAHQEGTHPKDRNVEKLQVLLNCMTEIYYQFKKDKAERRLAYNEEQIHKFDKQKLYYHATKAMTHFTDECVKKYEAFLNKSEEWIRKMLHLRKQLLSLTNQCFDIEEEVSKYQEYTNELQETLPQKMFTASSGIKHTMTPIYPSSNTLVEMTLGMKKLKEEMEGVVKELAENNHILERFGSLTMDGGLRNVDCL

[8] = target: T3, TSSK2 (Homo sapiens, UniProt Q96PF2)
T3 sequence (Q96PF2 1-358): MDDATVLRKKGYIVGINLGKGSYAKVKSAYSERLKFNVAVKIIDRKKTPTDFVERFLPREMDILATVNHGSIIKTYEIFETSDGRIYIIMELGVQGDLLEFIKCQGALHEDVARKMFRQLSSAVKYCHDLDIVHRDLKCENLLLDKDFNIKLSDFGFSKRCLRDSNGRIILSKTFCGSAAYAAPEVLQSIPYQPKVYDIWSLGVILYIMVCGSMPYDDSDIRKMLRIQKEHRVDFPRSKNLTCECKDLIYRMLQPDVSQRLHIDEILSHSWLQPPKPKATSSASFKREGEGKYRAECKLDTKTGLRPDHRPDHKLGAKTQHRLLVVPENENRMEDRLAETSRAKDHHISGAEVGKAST

[9] = target: CK1γ2 (Homo sapiens, UniProt P78368)
Chain of CK1γ2 (P78368 whole entry): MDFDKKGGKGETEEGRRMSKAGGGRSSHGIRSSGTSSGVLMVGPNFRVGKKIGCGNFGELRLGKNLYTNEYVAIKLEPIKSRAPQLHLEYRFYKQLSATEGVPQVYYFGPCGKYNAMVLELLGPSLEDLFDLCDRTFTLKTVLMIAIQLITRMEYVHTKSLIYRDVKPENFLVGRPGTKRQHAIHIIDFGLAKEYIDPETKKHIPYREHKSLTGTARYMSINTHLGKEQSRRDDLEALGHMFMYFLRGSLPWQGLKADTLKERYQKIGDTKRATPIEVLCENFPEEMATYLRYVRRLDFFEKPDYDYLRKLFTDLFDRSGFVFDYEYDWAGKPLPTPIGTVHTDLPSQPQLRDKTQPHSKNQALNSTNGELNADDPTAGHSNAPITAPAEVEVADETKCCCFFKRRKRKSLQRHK

Chain of CDK5/p25 (Q00535 whole entry): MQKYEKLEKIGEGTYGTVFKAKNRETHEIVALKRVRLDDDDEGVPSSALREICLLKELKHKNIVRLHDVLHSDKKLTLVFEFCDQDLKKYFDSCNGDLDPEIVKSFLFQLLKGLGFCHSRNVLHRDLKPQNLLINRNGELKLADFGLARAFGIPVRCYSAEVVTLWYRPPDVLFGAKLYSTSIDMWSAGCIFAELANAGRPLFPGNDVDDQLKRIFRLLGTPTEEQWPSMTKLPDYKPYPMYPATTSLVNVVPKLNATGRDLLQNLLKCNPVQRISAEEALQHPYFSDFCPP
Chain of CDK5/p25 (Q15078 99-307 partner limits assumed): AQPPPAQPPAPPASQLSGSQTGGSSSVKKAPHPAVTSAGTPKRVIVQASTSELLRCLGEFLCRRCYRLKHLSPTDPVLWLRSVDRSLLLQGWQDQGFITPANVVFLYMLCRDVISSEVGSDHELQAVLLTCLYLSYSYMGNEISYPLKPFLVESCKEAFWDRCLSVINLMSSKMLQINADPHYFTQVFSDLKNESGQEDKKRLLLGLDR

Question: What does the source list for `COc1cc(O)c(CC=C(C)C)c(O)c1C(=O)/C=C/c1ccc(O)cc1` [Xanthohumol, xanthohumol]?
Answer: Kinase activity, % of Control ([1]; 25 ug/ml): 24 % of Control; Kinase activity, % of Control ([1]; 50 ug/ml): 87 % of Control; Kinase activity, % of Control ([2]; 1 ug/ml): 121 % of Control; Kinase activity, % of Control ([2]; 5 ug/ml): 126 % of Control; Kinase activity, % of Control ([2]; 25 ug/ml): 142 % of Control; Kinase activity, % of Control ([2]; 50 ug/ml): 149 % of Control; Kinase activity, % of Control ([3]; 1 ug/ml): 132 % of Control; Kinase activity, % of Control ([3]; 5 ug/ml): 85 % of Control; Kinase activity, % of Control ([3]; 25 ug/ml): 52 % of Control; Kinase activity, % of Control ([3]; 50 ug/ml): 27 % of Control; Kinase activity, % of Control ([4]; 1 ug/ml): 110 % of Control; Kinase activity, % of Control ([4]; 5 ug/ml): 98 % of Control; Kinase activity, % of Control ([5]; 1 ug/ml): 47 % of Control; Kinase activity, % of Control ([5]; 5 ug/ml): 11 % of Control; Kinase activity, % of Control ([5]; 25 ug/ml): 7 % of Control; Kinase activity, % of Control ([5]; 50 ug/ml): 5 % of Control; Kinase activity, % of Control ([6]; 1 ug/ml): 34 % of Control; Kinase activity, % of Control ([6]; 5 ug/ml): 49 % of Control; Kinase activity, % of Control ([6]; 25 ug/ml): 4 % of Control; Kinase activity, % of Control ([6]; 50 ug/ml): 0 % of Control; Kinase activity, % of Control ([7]; 1 ug/ml): 104 % of Control; Kinase activity, % of Control ([7]; 5 ug/ml): 71 % of Control; Kinase activity, % of Control ([7]; 25 ug/ml): 45 % of Control; Kinase activity, % of Control ([7]; 50 ug/ml): 42 % of Control; Kinase activity, % of Control ([8]; 1 ug/ml): 102 % of Control; Kinase activity, % of Control ([8]; 5 ug/ml): 95 % of Control; Kinase activity, % of Control ([8]; 25 ug/ml): 61 % of Control; Kinase activity, % of Control ([8]; 50 ug/ml): 48 % of Control; Kinase activity, % of Control ([9]; 1 ug/ml): 92 % of Control; Kinase activity, % of Control ([9]; 5 ug/ml): 48 % of Control; Kinase activity, % of Control ([9]; 25 ug/ml): 30 % of Control; Kinase activity, % of Control ([9]; 50 ug/ml): 12 % of Control
